Measured values taken from patent US20240199577A1, “ACORAMIDIS ANALOGS FOR STABILIZING TRANSTHYRETIN AND INHIBITING TRANSTHYRETIN MISFOLDING” (Protego Biopharma, Inc., priority 2021, published 2024).

Columns and labels:
[1] = In vitro rat liver S9 stability assay (formation of AG10); format: in vitro ADME; settings: rat liver S9, 1 μM test compound, 37° C.
Protocol: The test compound was added to liver S9 and incubated at 37° C. in a water bath at a concentration of 1 μM. At each time point (0, 5, 10, 20, 30 and 60 min), stop solution (tolbutamide plus labetalol) was added to precipitate protein and mixed thoroughly. After centrifugation, an aliquot of supernatant was analyzed by LC-MS/MS. The percentage of formation of active agent was calculated at each time point.

[2] = Pharmacokinetic study in rat (plasma, CSF, brain); format: in vivo; settings: male, Sprague-Dawley, oral dose of 40 mg/kg
Text: For a compound provided herein to be an effective TTR stabilizer drug to halt and/or prevent the ocular and cerebral TTR amyloid deposition TTR amyloidosis, it has to be able to penetrate into the brain and CSF (surrogate for eye penetration) and deliver a sufficient amount of TTR stabilizer to stop TTR dissociation. A pharmacokinetic study in rat is used to evaluate the compounds. Male Sprague-Dawley (SD) rats (200-220 g weight) are acclimated for at least 2 to 3 days before being placed on study. All animals will have access to certified rodent diet and water at libitum. […] For IV dosing, the test compound is administered via tail vein or indwelling cannula. For oral dosing, the test compound is administered by oral gavage. Blood and CSF samples are collected at selected timepoints. Blood collection is performed from saphenous vein or tail vein of each animal into polypropylene tubes at each timepoint. […] The weight of brain samples is recorded. […] Using a LC-MSMS method for the quantitative determination of test compound in biological matrixes, amount of test compound and active agent are measured in plasma and CSF at selected timepoints post-dosing and in brain at 24 hrs post dosing. Plasma concentration versus time data is analyzed by non-compartmental approaches using the Phoenix WinNonlin 6.3 software program. […]

[3] = tafamidis-treated FAP patients, cited from earlier work

Cc1n[nH]c(C)c1CCCOc1cc(C(=O)OC2CCN(C)C2)ccc1F (centres unmarked) [Compound 2, 1-methylpyrrolidin-3-yl 3-(3-(3,5-dimethyl-1H-pyrazol-4-yl)propoxy)-4-fluorobenzoate]
Formation of AG10 at 60 min [1]: A (A is <25%)

Cc1n[nH]c(C)c1CCCOc1cc(C(=O)O)ccc1F [AG10, acoramidis]
Kp ([2]; CSF and plasma, over 24 hrs, read-out: CSF to plasma ratio over 24 hrs): ~0.009
Kp at 24 h ([2]; brain and plasma, at 24 hrs, read-out: brain to plasma ratio at 24 hrs): ~0.008

O=C(O)c1ccc2nc(-c3cc(Cl)cc(Cl)c3)oc2c1 [tafamidis]
tafamidis level in CSF relative to that in plasma ([3]; CSF): 2%
tafamidis/TTR stoechimetric ratio in CSF ([3]; CSF): ≤ 1
tafamidis/TTR stoechimetric ratio in plasma ([3]; plasma): 2.4
tafamidis level in vitreous relative to that in plasma ([3]; vitreous): 0.5%
tafamidis/TTR stoechimetric ratio in vitreous ([3]; vitreous): ≤ 1
